Data as given in patent US20040077092A1, “Control and calibration material for blood coagulation tests” (priority 2002, published 2004).

Assays:
Type in all cases: biochemical
[1] = system: Citrate plasma that was obtained from rabbits; test: Prothrombin time test, CoaguChek Pro; prolongation substance added to plasma before lyophilization; settings: lyophilized, rehydrated with distilled water, PT
Experimental: Production and Use of the Inventive Control and Calibration Material for the Product CoaguChek® Pro (test for determining the prothrombin time) from Roche Diagnostics
Effect of the Prolongation Substance when Added to Plasma for the Production of the Control and Calibration Material.
Citrate plasma that was obtained from rabbits was processed further as follows.
A portion of the citrate plasma is left untreated and filled in 3.0 ml portions into siliconized vessels and lyophilized. The remainder of the plasma is used to produce preparations to which 2.0%, 3.5% and 5.0% urea (in each case % by weight) is added in each case to the plasma as the prolongation substance. These mixtures are also filled in 3.0 ml portions and lyophilized.
After rehydration of the individual preparations with distilled water, the samples obtained in this manner are added dropwise to test cards of the CoaguChek® Pro from Roche Diagnostics and the seconds which elapse until the onset of coagulation is determined on the accompanying measuring instrument CoaguChek® Pro.

[2] = system: Commercial control material level 1 for the CoaguChek system; test: Prothrombin time test, CoaguChek system; prolongation substance in the rehydration solution; settings: PT
Text: Effect of the Prolongation Substance when Added to the Rehydration Solution
[…] These solutions are subsequently measured with the CoaguChek® system (test plus measuring instrument).

[3] = system: control plasma "PreClot I/II"; test: aPTT (activated partial thromboplastin time), PTT a reagent, ball coagulometer KC10A
Experimental: Effect of the Inventive Prolongation Substances when Added to Control Plasmas to Monitor the Determination of aPTT (activated partial thromboplastin time)
The control plasma “PreClot I/II” from Roche Diagnostics is rehydrated according to the instructions of the manufacturer with aqueous solutions in which 0%, 2.0%, 3.5% and 5.0% N-methyl urea (in each case % by weight) are dissolved. The “PTT a reagent for the automated and manual determination of the activated partial thromboplastin time” from Roche Diagnostics is used to determine the clotting time in seconds in the control solutions obtained in this manner on a ball coagulometer KC10A from the Amelung Company (Germany).
The experimental protocol is the same as described in example 2a).
The only amendment was that the following concentrations of guanidine hydrochloride were added to the rehydration solution (in each case % by weight): 0%, 0.5% 1.0% and 1.5%.

[4] = system: lyophilized control plasma "ACT quality control CoaguChek Pro system level 1"; test: Activated clotting time (ACT), ACT test cassettes of the CoaguChek Pro system
Experimental: Effect of the Prolongation Substances According to the Invention when Added to Control Plasmas to Monitor the Determination of the Activated Clotting Time (ACT)
The lyophilized control plasma “ACT quality control CoaguChek® Pro system level 1” from Roche Diagnostics was rehydrated with the supplied rehydration solution according to the instructions of the manufacturer. 0%, 0.25%, 0.5% and 0.75% guanidine hydrochloride (in each case % by weight) were added to these solutions.

[5] = 0.5 % by weight guanidine in the rehydration solution

## NC(N)=O [urea]
[1]; 2.0 % by weight urea added to rabbit citrate plasma
  time until the onset of coagulation: 22.9 s
[1]; 3.5 % by weight urea added to rabbit citrate plasma
  time until the onset of coagulation: 29.6 s
[1]; 5.0 % by weight urea added to rabbit citrate plasma
  time until the onset of coagulation: 41.2 s
[2]; 2.0 % by weight urea in the rehydration solution
  time until the onset of coagulation: 19.3 s
[2]; 3.0 % by weight urea in the rehydration solution
  time until the onset of coagulation: 28.1 s
[2]; 4.0 % by weight urea in the rehydration solution
  time until the onset of coagulation: 32.2 s
[2]; 5.0 % by weight urea in the rehydration solution
  time until the onset of coagulation: 37.8 s

## Cl.N=C(N)N [guanidine, guanidine hydrochloride]
[3]; [5]
  time until the onset of coagulation: 33.1 s
[3]; 1.0 % by weight guanidine in the rehydration solution
  time until the onset of coagulation: 41.9 s
[3]; 1.5 % by weight guanidine in the rehydration solution
  time until the onset of coagulation: 51.8 s
[4]; 0.25 % by weight guanidine in the rehydration solution
  time until the onset of coagulation: 175.6 s
[4]; [5]
  time until the onset of coagulation: 223.4 s
[4]; 0.75 % by weight guanidine in the rehydration solution
  time until the onset of coagulation: 305.6 s

## CNC(N)=O [N-methyl-urea]
[3]; 2.0 % by weight N-methyl-urea in the rehydration solution
  time until the onset of coagulation: 34.0 s
[3]; 3.5 % by weight N-methyl-urea in the rehydration solution
  time until the onset of coagulation: 38.6 s
[3]; 5.0 % by weight N-methyl-urea in the rehydration solution
  time until the onset of coagulation: 44.0 s
